This note sets out measurements from US20050147640A1, “Noctuid attractant composition” (priority 2002, published 2005).

The test relates to Noctuidae. Description: Sticky board trap comparison of attractant blends beside cotton crops. Type of test: in vivo. From the text:
Comparisons of a range of attractant blends were made using sticky board traps adjacent to cotton crops on the Darling Downs region of Queensland, Australia. This experimental set up allowed comparison of attractants in the presence of the crop volatiles without confusing factors such as the effect of non-volatile feeding stimulants.
A series of rectangular boards 1.2 metres high×1.5 metres wide were placed approximately 1 metre outside the edge of a cotton field at spacings of 50 metres. The boards were suspended at a height of 1 metre above the ground using star posts. Four 100 mm diameter round holes were made in the centre of the boards and cotton wicks containing experimental attractant mixes were suspended in these holes using a paper clip. The boards were coated on both sides with 500 to 700 grams of polybutene sticker so insects attracted to the experimental volatiles would become trapped on the boards. Impregnated wicks were placed in the traps mid afternoon and traps were checked after 48 hours.

Consider `O=CCc1ccccc1` [PAA, Phenylacetaldehyde], for which, for the setting “Table 3, total of all Noctuidae, 3.12 mg of each ingredient per sticky board, traps checked after 48 hours”, the “Mean (Moths/board)” value was 1.00 Moths/board. The “Comparison of moth catch in words” value (Table 3 experiment, sticky traps) is reported as “not significantly attractive”.
